# Tests used:
# [1] = Cellular viability of HepG2 cells (MTT and neutral red uptake); assay type: cell-based; conditions: human, HepG2 cells; MTT method, 72 h
# Protocol: (§1) Cellular viability was determined using two distinct methods—3-(4,5-dimethylthiazol-2-yl)-2,5-diphenyl-2H-tetrazolium bromide (MTT) and neutral red uptake (NRU). The cell lines employed in the evaluation were Vero and HepG2 cells. Both cell lines were grown with Dulbecco’s Modified Eagle Medium (DMEM-Gibco, Grand Island, NY, USA) and supplemented with 10% fetal bovine serum by Invitrogen, 1% antibiotics (penicillin and streptomycin) by Gibco, and 0.1% fungizone by Gibco. For the MTT and NRU assays, Vero (2 × 10^3 cells/well) and HepG2 (4 × 10^3 cells/well) cells were seeded in 96-well culture plates and incubated overnight. The N-(4-(benzyloxy)benzyl)-4-aminoquinolines were diluted at concentrations of 3 µM using DMSO 1% and were incubated with the cell lines for 72 h at 37 °C. In the MTT investigation, after incubation for 72 h at 37 °C under 5% CO2, the cells were incubated with MTT solution (5 mg/mL, Sigma-Aldrich, St. Louis, MO, USA) for 4 h. The formazan crystals were solubilized in 100 µL of DMSO. An EZ Read 400 microplate reader (Biochrom, Cambridge, UK) was used to measure the absorbance at 570 nm. The mean absorbance of negative control wells was established as the maximum viability and the values of treated cells were calculated as the percentage of vehicle control (1% DMSO). The precipitated purple formazan crystals were directly equivalent to the number of live cells with active mitochondrial metabolism. In the NRU investigation, after 72 h of cell incubation, PBS was used to wash the cells and 200 µL of neutral red dye solution (25 µg/mL, Sigma-Aldrich, St. Louis, MO, USA) prepared in serum-free medium was added to the plate and incubated for 3 h at 37 °C under 5% CO2. Cells were washed with PBS followed by the addition of 100 µL of desorb solution (ethanol/acetic acid/water, 50:1:49) for 30 min with smooth homogenization to extract neutral red dye from the viable cells. An EZ Read 400 microplate reader was operated to measure the absorbance at 562 nm, and the cell viability was attributed as a percentage, considering the vehicle control cell (1% DMSO) as maximum cell viability.
# [2] = system: HepG2 cells; assay: as above; assay type: cell-based; conditions: for HepG2 cell viability in words: 72 h at concentrations similar to MIC, MTT and neutral red; for CC50: neutral red method, 72 h
# Protocol: as §1
# [3] = system: M. tuberculosis H37Rv; assay: Minimum inhibitory concentration (resazurin microplate); assay type: cell-based, Mycobacterium tuberculosis; conditions: Mycobacterium tuberculosis; M. tuberculosis H37Rv; 7 days + 48 h resazurin; highest value of three assays
# [4] = assay type: physicochemical; conditions: buffer, 24 h, 10 µM
# Protocol: The experiment was carried out by the Center for Applied Mass Spectrometry (CEMSA), São Paulo, Brazil. In brief, the test compounds (10 µM) were incubated at 37 °C for 24 h in the presence of pH-controlled buffer solution at pH 1.2 (simulating the pH of the stomach—0.1 M HCl), pH 7.4 (simulating plasma pH—phosphate buffer) and pH 9.1 (simulating intestinal pH—0.1 M NH4HCO3). Afterward, compounds were quantified by HPLC–MS/MS. Alprenolol drug was used as an analytical control (data not shown). The results were presented as the percentage, comparing the signal at time zero of the assay (100%) with the signal produced by concentrations after the incubation period.
# [5] = Metabolic stability in rat liver microsomes; assay type: in vitro ADME; conditions: for Metabolism rate class: rat microsomes, classes by Clint; for CLint scaled / half-life: rat, microsomes
# Protocol: The experiment was carried out by the Center for Applied Mass Spectrometry (CEMSA), São Paulo, Brazil. In brief, the metabolic stability assay was performed in the presence of rat liver microsomes. Compounds were incubated at 37 °C in a buffered solution containing 1 mg/mL of microsomal protein and nicotinamide adenine dinucleotide […]. The reaction was stopped at different times using acetonitrile. The compound concentration was determined by HPLC–MS/MS at each incubation time (0, 5, 15, and 30 min) and the percentage remaining versus time curve was determined. Verapamil was used as an analytical control (data not shown).
# [6] = system: Vero cells; assay: Cellular viability of Vero cells (MTT and neutral red uptake); assay type: cell-based; conditions: for Vero cell viability in words: 72 h at concentrations similar to MIC, MTT and neutral red; for CC50: neutral red method, 72 h
# Protocol: as §1
# [7] = as above; assay type: cell-based; conditions: African green monkey, Vero cells; MTT method, 72 h
# Protocol: as §1
# [8] = in vitro; assay type: in vitro ADME; conditions: for Papp at 5 h, 10 µM: PAMPA, pH 7.4
# Protocol: The experiment was carried out by the Center for Applied Mass Spectrometry (CEMSA), São Paulo, Brazil. In brief, the Parallel Artificial Membrane Permeability Assay (PAMPA) assay consists of quantifying the test compound (via HPLC–MS/MS) after an incubation period, in two solutions separated by an artificial lipid membrane. The result of this test is expressed in units of diffusion rate (permeation). The procedure comprised the following steps: (1) preparing the membrane, which contains lipids, with specific activating solutions, creating a hydrophobic surface that simulates the intestinal epithelial cell; (2) adding the test compound at a concentration of 10 µM to the donor aqueous phase (buffered pH 7.4); (3) after 5 h at room temperature, an aliquot of the solution receptor (buffered at pH 7.4) is removed, in which the compound is transported by passive diffusion, for quantification by HPLC–MS/MS.
SMILES,CC50 at 72 h [1] [nM],HepG2 cell viability in words [2],CC50 [2] [nM],MIC [3] [µM],melting point [°C],"Chemical Stability pH 1.2, remaining compound [4] [%]","Chemical Stability pH 7.4, remaining compound [4] [%]","Chemical Stability pH 9.1, remaining compound [4] [%]",Metabolism rate class [5],CLint scaled [5] [mL/min/kg],half-life [5] [min],Vero cell viability in words [6],CC50 [6] [nM],CC50 at 72 h [7] [nM],Passive permeability (PAMPA) in words [8],"Papp at 5 h, 10 µM [8] [×10⁻⁶ cm/s]"
"Cc1cc(NCc2ccc(OCc3ccc(Cl)cc3)cc2)c2cc(Br)ccc2n1 [Compound 9n, N-(4-((4-chlorobenzyl)oxy)benzyl)-6-bromo-2-methylquinolin-4-amine]",> 3000,not significantly altered,> 3000,2.7,184 to 186,14.9,5.0,13.8,moderate (moderate metabolism rates (47 ≤ Clint ≥ 16)),39,19,not significantly altered,> 3000,> 3000,low permeability,0.3
"Cc1cc(NCc2ccc(OCc3ccc(F)cc3)cc2)c2cc(Br)ccc2n1 [Compound 9o, N-(4-((4-fluorobenzyl)oxy)benzyl) 6-bromo-2-methylquinolin-4-amine]",> 3000,not significantly altered,> 3000,2.8,173 to 175,22.9,7.6,11.1,high (high metabolism rates (Clint > 47)),56,7.9,not significantly altered,> 3000,> 3000,high permeability,3
